# Measured values reported in patent publication US20090311349A1, “METHOD OF QUANTIFICATION OF MULTIPLE BIOACTIVES FROM BOTANICAL COMPOSITIONS” (priority 2008, published 2009).
# Marks after values point to notes of the source that are not given here.
# What was measured:
# breast cancer graft = assay: Breast cancer graft growth, control vs DES vs MF101; assay type: in vivo
# Excerpt: (§1) In a similar experiment, the effect of MF101 on breast cancer cells was compared to that of diethylstilbestrol (DES). […] FIGS. 3G and 3H show the effect of control, DES and MF101 on a breast cancer graft mass (FIG. 3G) and a uterine horn mass (FIG. 3H).
# uterine horn = assay: Uterine horn mass, control vs DES vs MF101; assay type: in vivo
# Excerpt: as §1
# [1] = tested on: U2OS-ERα and U2OS-ERβ cell lines; assay: Affymetrix U95Av2 microarray, both U2OS-ERα and U2OS-ERβ cell lines; assay type: cell-based, human; conditions: for genes Activated, α + β / genes Repressed, α + β: 10 nM E2 or 1 μM tamoxifen
# Method: (§2) To identify genes regulated by ERα and/or ERβ, the U2OS-ERα and U2OS-ERβ cell lines were treated with doxycycline for 18 h in the absence or presence of 10 nM E2. Total RNA was used to prepare cRNA for hybridization with the human U95Av2 Affymetrix microarrays, which contain 12,600 known genes. Six sets of comparative expression data of untreated vs. each treated group were used to determine the genes regulated in ERα or ERβ cells.
# (§3) Microarray data obtained from human Affymetrix U95Av2 gene chips from untreated vs. ligand-treated samples were analyzed using the Affymetrix Microarray Suite Version 5.0. Candidate genes displaying a statistically significant (p<0.05) increase or decrease signal changes relative to controls in at least three experiments were further selected by a ±0.8 signal log ratio mean cut-off. […] Fold-changes in the U2OS-ERα and U2OS-ERβ samples (in parentheses) were calculated relative to the untreated samples.
# MCF-7 cells = assay: [3H] thymidine incorporation in adenovirus-infected MCF-7 cells; assay type: cell-based, human; conditions: presence of E2; 10 days
# Method: To investigate the role of ERα in breast cancer, the effects of E2 on cell proliferation in MCF-7 cells that express only ERα were studied. […] (An, supra, 2001). […] To investigate the role of ERβ on the proliferation of breast cancer cells, an adenovirus (Ad) was used to deliver ERβ into a high percentage of cells. MCF-7 cells were infected for 24 h with Ad-ERβ or Ad-LacZ to control for potential non-specific effects of the virus. The infected cells were grown for 10 days in the absence or presence of E2, after which DNA synthesis was measured by [3H] thymidine incorporation in vitro. […] E2 augmented the inhibition of cell proliferation to 70% in the Ad-ERβ-infected cells. Similar results were observed using 100 multiplicity of infection (MOI) of Ad-ERβ. The observation that the inhibition of cell proliferation by ERβ was predominantly ligand-independent may result from residual E2 in stripped serum or retained in cells infected with ERβ, or unliganded properties of […].
# U2OS-ERα cells [2] = assay: Affymetrix U95Av2 microarray, U2OS-ERα cells; assay type: cell-based, human
# Method: as §2, §3
# U2OS-ERβ cells [3] = assay: Affymetrix U95Av2 microarray, U2OS-ERβ cells; assay type: cell-based, human
# Method: as §2, §3
# human ERβ = biological target: T1, human ERβ (Homo sapiens, UniProt Q92731); assay: ERE-tk-Luc reporter activation in U2OS cells transfected with ERβ; assay type: cell-based; conditions: activation by MF101 (MF101 and estradiol)
# T1 construct: expressed in transfected cells; host or cells: U2OS osteosarcoma cells
# U2OS-ERα cells [4] = assay: Affymetrix U95Av2 microarray, U2OS-ERα cells; assay type: cell-based, human; conditions: 1 μM raloxifene, 18 h
# U2OS-ERβ cells [5] = assay: Affymetrix U95Av2 microarray, U2OS-ERβ cells; assay type: cell-based, human; conditions: 1 μM raloxifene, 18 h
# U2OS-ERβ cells [6] = conditions: 1 μM raloxifene, 18 h, relative to untreated
# [7] = tested on: U2OS-ERα and U2OS-ERβ cell lines; assay: Affymetrix U95Av2 microarray, both U2OS-ERα and U2OS-ERβ cell lines; assay type: cell-based, human
# U2OS-ERα cells [8] = conditions: 1 μM raloxifene, 18 h, relative to untreated
# [9] = 10 nM E2, 1 μM raloxifene or 1 μM tamoxifen, 18 h
# [10] = 1 μM raloxifene or 1 μM tamoxifen, 18 h
# T1 sequence (Q92731 whole entry): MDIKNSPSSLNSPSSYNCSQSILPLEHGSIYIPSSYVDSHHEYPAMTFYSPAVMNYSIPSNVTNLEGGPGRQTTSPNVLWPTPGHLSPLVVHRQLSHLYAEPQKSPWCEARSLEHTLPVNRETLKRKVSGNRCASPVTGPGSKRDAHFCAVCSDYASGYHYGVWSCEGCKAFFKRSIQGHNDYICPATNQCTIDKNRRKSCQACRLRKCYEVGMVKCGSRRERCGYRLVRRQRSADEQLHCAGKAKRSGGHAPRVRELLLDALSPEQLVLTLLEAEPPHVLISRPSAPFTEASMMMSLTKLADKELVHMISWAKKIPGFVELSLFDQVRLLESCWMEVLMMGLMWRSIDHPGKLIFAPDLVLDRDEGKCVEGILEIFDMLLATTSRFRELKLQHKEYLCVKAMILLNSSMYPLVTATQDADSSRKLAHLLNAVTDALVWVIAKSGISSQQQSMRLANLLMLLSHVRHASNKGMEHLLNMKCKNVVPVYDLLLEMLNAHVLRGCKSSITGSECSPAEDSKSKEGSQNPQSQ
structure (smiles),measurement,setting,value
"CC/C(=C(/CC)c1ccc(O)cc1)c1ccc(O)cc1 [DES, diethylstilbestrol]",growth of xenograft (breast cancer graft mass),breast cancer graft; vs control,substantial increase
same,proliferation of breast cancer cells (FIGS. 3D-3F),breast cancer graft; vs control-treated,proliferation-stimulating effect
same,uterine horn growth (mass),uterine horn,substantial increase
C[C@]12CC[C@@H]3c4ccc(O)cc4CC[C@H]3[C@@H]1CC[C@@H]2O [estradiol],share of genes regulated by both ERα and ERβ,[1]; 10 nM E2,17%
same,genes regulated in U2OSα and U2OSβ cell lines,"[1]; 10 nM E2, 1 μM raloxifene or 1 μM tamoxifen, 18 h, p<0.05, listed as E2",228 genes
same,genes regulated by both ERα and ERβ,"[1]; 10 nM E2, of the 228",38 genes
same,"genes Activated, α + β",[1]; 18 h,34 genes
same,"genes Repressed, α + β",[1]; 18 h,4 genes
same,inhibition of cell proliferation in Ad-ERβ-infected MCF-7 cells,MCF-7 cells,70%
same,genes regulated only in the U2OS-ERα cells,U2OS-ERα cells [2]; 10 nM E2,65 genes
same,"genes Activated, α only",U2OS-ERα cells [2]; [9],33 genes
same,"genes Repressed, α only",U2OS-ERα cells [2]; [9],32 genes
same,genes regulated only in the U2OS-ERβ cells,U2OS-ERβ cells [3]; 10 nM E2,125 genes
same,"genes Activated, β only",U2OS-ERβ cells [3]; [9],87 genes
same,"genes Repressed, β only",U2OS-ERβ cells [3]; [9],38 genes
O=C(c1ccc(OCCN2CCCCC2)cc1)c1c(-c2ccc(O)cc2)sc2cc(O)ccc12 [raloxifene],blockade of ERE-tk-Luc activation through ERβ,human ERβ,blocked
same,"Mean signal log ratio ± S.E., NKG2C (α)",U2OS-ERα cells [4],2.40 ± 0.82
same,"Mean signal log ratio ± S.E., NKG2C (β)",U2OS-ERβ cells [5],−5.20 ± 0.08
same,"Fold-change by real-time PCR, NKG2C (β)",U2OS-ERβ cells [6],0.36 fold
same,"common genes with opposite expression patterns (*), relative percentage",[7]; [10],(8.9%)
same,common genes with opposite expression patterns in ERα compared to ERβ cells (*),[7]; [10],17* genes
same,"Fold-change by real-time PCR, NKG2C (α)",U2OS-ERα cells [8],7.54 fold
same,"genes Activated, α only",U2OS-ERα cells [2]; [9],10 genes
same,"genes Activated, α only, relative percentage",U2OS-ERα cells [2]; [9],(5.3%)
same,"genes Repressed, α only",U2OS-ERα cells [2]; [9],10 genes
same,"genes Repressed, α only, relative percentage",U2OS-ERα cells [2]; [9],(5.3%)
same,"genes Activated, β only",U2OS-ERβ cells [3]; [9],52 genes
same,"genes Activated, β only, relative percentage",U2OS-ERβ cells [3]; [9],(27.4%)
same,"genes Repressed, β only",U2OS-ERβ cells [3]; [9],101 genes
same,"genes Repressed, β only, relative percentage",U2OS-ERβ cells [3]; [9],(53.2%)
CC/C(=C(\c1ccccc1)c1ccc(OCCN(C)C)cc1)c1ccccc1 [tamoxifen],"genes Activated, α + β",[1]; 18 h,1 genes
same,"genes Repressed, α + β",[1]; 18 h,9 genes
same,share of genes regulated by tamoxifen also regulated by raloxifene,[7],27%
same,common genes with opposite expression patterns in ERα compared to ERβ cells (*),[7]; [10],12* genes
same,"genes Activated, α only",U2OS-ERα cells [2]; [9],21 genes
same,"genes Repressed, α only",U2OS-ERα cells [2]; [9],38 genes
same,"genes Activated, β only",U2OS-ERβ cells [3]; [9],26 genes
same,"genes Repressed, β only",U2OS-ERβ cells [3]; [9],129 genes
